Columns and labels:
[1] = pH 7; relative to normal hydrogen electrode; cited from earlier work
[2] = Reaction of iron(III)-polymaltose complex with ascorbic acid in buffered solution, UV-VIS, exclusion of oxygen; assay type: physicochemical
From the text: The following measurements were obtained when iron(III)-polymaltose complex with ascorbic acid (ascorbic acid) was investigated at pH 3.0, 5.5 and 8.0:
The buffered solutions (buffers as described above, see Geisser, P., Arneim. -Forsch./Drug Res. 1990, 40 (II), 7, 754-760) were mixed in a molar ratio of Fe(III):ascorbic acid of 1:1, the concentration of Fe(III) and ascorbic acid in the mixture being 5×10^−5 mol/l in each case, and investigated using a conventional UV-VIS spectrophotometer. The operation was carried out with the strict exclusion of oxygen.

[3] = pH 3.0, reaction time 2 h, Fe(III):ascorbic acid 1:1, 5x10^-5 mol/l
[4] = pH 3.0, reaction time 4 h, Fe(III):ascorbic acid 1:1
[5] = pH 5.5, reaction time 2 h, Fe(III):ascorbic acid 1:1
[6] = pH 8.0, reaction time 2 h, Fe(III):ascorbic acid 1:1
[7] = pH 8.0, reaction time 4 h, Fe(III):ascorbic acid 1:1

Row | Molecule | redox potential [1] | reaction with ascorbic acid to give dehydroascorbic acid ([2]; pH 3, 5.5 and 8, buffered solution, exclusion of oxygen) | Formation of Fe2+ ions [2, 3] | Formation of dehydroascorbic acid [2, 3] | Formation of Fe2+ ions [2, 4] | Formation of dehydroascorbic acid [2, 4] | Formation of Fe2+ ions [2, 5] | Formation of dehydroascorbic acid [2, 5] | Formation of Fe2+ ions [2, 6] | Formation of dehydroascorbic acid [2, 6] | Formation of Fe2+ ions [2, 7] | Formation of dehydroascorbic acid [2, 7] | reaction with ascorbic acid to dehydroascorbic acid and Fe(II) ([2]; within a period of 4 hours, pH values of from 3 to 8)
1 | iron(III)-polymaltose complex | −332 mV | does not react | 2% | 2% | 7% | 7% | 0% | 0% | 5% | 9% | 5% | 13% | reacts only slowly
2 | O=C1O[C@H]([C@@H](O)CO)C(O)=C1O [ascorbic acid, reference compound] | −66 mV | – | – | – | – | – | – | – | – | – | – | – | –
